For series [1] the following is noted: free BAPN; quickly excreted and metabolized; cited from earlier work.
Series [2] deals with malignant mammary adenocarcinoma, code 13762 NM. Put plainly: Single injection of lipophilic lathyrogen/polymeric carrier into mammary carcinoma (Example V). The series is classed as in vivo, rats. Conditions: single intratumoral injection on day 10, in polymeric carrier with unmodified DPA or BAPN. Here is the method:
In this Example V, Applicant prepared a formulation comprising methylester-DPA.HCl, i.e. Compound II wherein R1 is methyl and wherein R2 is hydrogen, and wherein X is chloride, or Hexyl(amino)-propionitrile, i.e. Compound IV, wherein R4 is hexyl, dispersed in a liquid polymeric carrier.
Applicant dispersed 1 gram of either methylester-DPA.HCl, or hexyl(amino) propionitrile, in combination with about 100 mg of the unmodified DPA or BAPN, respectively, in about 1 ml of the liquid polymer. After thorough mixing, 1 ml volume syringes were filled with Applicant's formulation. All preparations were performed at about 4° C., over crushed ice, and the syringes and needles used were refrigerated prior to loading. The loaded syringes were kept in a refrigerated vessel until used.
The rat model of solid tumor was described by Miller et al. (Proc Nat'l Acad Sci 90,3304,1993). Fischer 344 (F344) inbred female rats were used. The initial body weight was 100 grams, plus or minus about 7 grams. The right flank area was clipped, and the rats were tattooed for identification in the ear. […]
There were 6 rats per group. […] Once the implanted tumor was detectable, the size of that tumor was measured by caliper in two perpendicular directions.
The growth of each tumor was determined every second day. […]

For another series, the system named is breast adenocarcinome. Put plainly: Single injection into mammary carcinoma, breast adenocarcinome model (Example VI). The class given is in vivo, rats. Conditions: single intratumoral injection; FIG. 3. Here is the method:
In this Example VI, Applicant studied the effect of various treatments on the tumor growth, survival rate, morphology, and metastases in Fisher rats of breast adenocarcinome model.
The method of Example V was used to prepare and inject tumor chunks into the test animals. In Example VI, Applicant used 5 groups of animals with 8 rats per group.
The preparation of the treatment modalities was as follows: • Group 1. Control • Group 2. Polymer Carrier only; used 1.5 ml polymer+1 ml water (polymer used: 38% PLGA-c-PEG in saline) • Group 3. 2 grams Polymeric Carrier+1.038 grams Hexyl ester DPA.HCl+200 mg DPA • Group 4. 800 mg Hexyl ester DPA.HCl+200 mg DPA+2 ml water • Group 5. 1.5 grams Polymeric Carrier+1.5 grams Hexyl (amino)propionitrile+200 mg BAPN Once mixed, all materials were kept on ice until injection time. The various formulations were injected into the tumor using a 23 gauge needle. The retains of Groups 2, 3, and 5, remained pourable after 2–3 hours at 82° F.

Series [3] in a line: Rate of release of lathyrogen from polymeric carrier HYPA(N-30) into saline. The series is classed as physicochemical. Conditions: for Percent Released: from HYPA(N-30) carrier into saline, 37° C. The procedure: Applicant compared the rate of release from a polymeric carrier of unmodified […] hydrophilic lathyrogen, and a lipophilic D-penicillamine adduct formed by reacting DPA with hexanaldehyde using a published synthetic procedure. Both lathyrogens were dispersed in a polyacrylonitrile (“PAN”) polymer sold in commerce by SKY Polymers, Princeton, N.J. under the tradename HYPA(N-30). The HYPA(N-30) was dissolved in 100% DMSO. Water drowning this DMSO/HYPA(N-30)/lipophilic DPA solution, using a syringe with a 16 gauge needle attached, into saline (0.9% NaCl in water W/v) forms a flexible, solid string. The […] was kept at 37° C., and the incubation jar was minimally shaken. At the times recited in Table 1, an aliquot of the incubation medium was collected and the amount of released D-penicillamine was determined using a reaction between ninhydrin and the free amino groups on the released DPA. […] The ninhydrin reaction requires heating the sample at 100° C., thus freeing the amino group. Table 1 recites the results.

For the next series, the system named is B-16 melanoma cells. The series can be described thus: Repeated injections of DPA into melanoma tumor (Example IV). The class given is in vivo, mice. The conditions noted are these: for Volume of melanoma tumor: 5 mg DPA in 0.2 ml saline daily, intratumoral, average. Here is the method:
Female mice, standard inbred C 57/Black, having between about 20 to about 25 g body weight were injected s.c. in the right flank region with 0.1 ml of […] B-16 melanoma cells. These cells are harvested in their end of the log phase growth. These cells come from a tissue culture, using RPMI 1640 medium with 10% FBS enriched with 1-glutamine, penicillin and streptomycin. Cells are harvested by trypsinization, counted, suspended in sterile PBS, and injected in 0.1 ml s.c. in flank region. There were 4 mice per group.
Injection of these melanoma cells resulted within 10 days post injection to a tumor weight of about 1.5 g. Tumor volumes were monitored 3× per week by caliper (MITUYO digital, Smalls Parts Inc., Phoenix, Ariz.) in two perpendicular directions and once per week for body weight. Tumor volume in cubic millimeters is calculated by the formula: (length×(width^2))/2.
Monitoring was continued up to 4 weeks. When the control animals began to die from the tumor burden, the experiment was terminated. Individual animals were terminated once the tumor volume exceeded 20% of mice weight, or when the body weight loss exceeded 20% of the starting body weight.
Table 2 recites the volume, in cubic millimeters, of the melanoma tumor injected daily with 5 mg DPA in 0.2 ml of saline. The treatment was administered once the tumor reached a detectable and measurable size. Average volumes are recited in Table 2. […] There was no effect on body weight or animals behavior.

For series [4] the following is noted: known properties; cited from earlier work.
For series [5] the following is noted: cited from earlier work.

Entries after “also recorded” stand apart in the source; their conditions may differ. Marks after values point to notes of the source that are not given here.

For the compound `N#CCCN` [BAPN, beta-aminopropionitrile], the duration of activity result in series [1] is “no more than 24 hours”.
On to `CCCCCCNCCC#N` [Hexylamino-propionitrile, Hexyl(amino)-propionitrile], for which the “growth of the tumor” value in series [2] is reported as “markedly inhibited; also recorded: inhibitory effect”.
For the compound `COC(=O)[C@H](N)C(C)(C)S.Cl` [methylester-DPA.HCl, DPA-Methylester Hydrochloride], in series [2] (Hydrochloride), the “growth of the tumor” value is recorded as “even more pronounced inhibition of tumor growth; also recorded: inhibitory effect”. Moreover, in the series on breast adenocarcinome, the tumor growth result was “effective”.
With D-Pencillamine [DPA], the “time over which released from the polymeric carrier” value in series [3] (FIG. 1) is “a few hours”. The “Percent Released” value in series [3] (Time 0.1 hours) worked out at 29%; in series [3] (Time 2 hours), 89%; in series [3] (Time 20 hours), 100%. Moreover, the “effect on body weight or animals behavior” value in the series with B-16 melanoma cells (daily intratumoral 5 mg DPA) is on record as “no effect”. The “Volume of melanoma tumor” value in the series on B-16 melanoma cells (day 0 after detectable tumor was injected) was 89 cubic millimeters; in the series with B-16 melanoma cells (day 2), 174* cubic millimeters; in the series on B-16 melanoma cells (day 5), 806* cubic millimeters; in the series on B-16 melanoma cells (day 7), 816* cubic millimeters; in the series with B-16 melanoma cells (day 9) it was 486* cubic millimeters. Further, in series [4], the “Toxicity In local administration” value is reported as “none”. Besides, the “Toxicity in systemic administration” value in series [4] is on record as “yes”. Further, the “solubility in aqueous media, such as tissue fluid” value in series [5] is listed as “very soluble”.

Source of the values: patent US7199156B2, “Composition and method to treat solid tumors” (priority 2003, dated 2007).
